Assay results from article PMC11721942 (Journal of Enzyme Inhibition and Medicinal Chemistry, 2023).
Counter-ions that a name gives are not always drawn. Like-named read-outs stand apart in the source and are kept apart here.

Assays:
[1] = system: α-glucosidase (yeast); conditions: cited from earlier work
[2] = target: yeast α-glucosidase (Saccharomyces cerevisiae, UniProt P53341); format: biochemical
[3] = system: SARS-CoV-2; conditions: Vero E6 cells; cited from earlier work
[4] = target: ER glucosidase II (rat liver); conditions: read-out: Inhibitory activity IC50; cited from earlier work
[5] = system: A549-ACE2 cells; assay: Cell toxicity assay; format: cell-based, human
[6] = target: α-glucosidase in rice; conditions: cited from earlier work
[7] = target: T1, human α-galactosidase A (Homo sapiens, UniProt P06280); format: biochemical
T1 sequence (P06280 32-429): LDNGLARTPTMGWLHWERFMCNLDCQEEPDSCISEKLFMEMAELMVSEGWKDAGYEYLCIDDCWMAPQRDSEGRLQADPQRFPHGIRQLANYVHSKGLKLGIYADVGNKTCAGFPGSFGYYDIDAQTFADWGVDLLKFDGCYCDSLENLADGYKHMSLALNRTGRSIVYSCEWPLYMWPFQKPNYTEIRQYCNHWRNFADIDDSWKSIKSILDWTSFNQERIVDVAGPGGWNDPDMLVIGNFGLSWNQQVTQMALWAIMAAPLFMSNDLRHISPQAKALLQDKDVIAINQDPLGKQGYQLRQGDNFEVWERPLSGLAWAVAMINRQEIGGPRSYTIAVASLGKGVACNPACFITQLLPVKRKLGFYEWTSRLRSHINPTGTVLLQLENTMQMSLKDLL

[8] = system: influenza haemagglutinin folding process in ER; conditions: cited from earlier work
[9] = system: SARS-CoV-2; conditions: A549-ACE2 cells; cited from earlier work
[10] = system: severe COVID-19; conditions: severe COVID-19 patients; cited from earlier work

Chain of yeast α-glucosidase (P53341 whole entry): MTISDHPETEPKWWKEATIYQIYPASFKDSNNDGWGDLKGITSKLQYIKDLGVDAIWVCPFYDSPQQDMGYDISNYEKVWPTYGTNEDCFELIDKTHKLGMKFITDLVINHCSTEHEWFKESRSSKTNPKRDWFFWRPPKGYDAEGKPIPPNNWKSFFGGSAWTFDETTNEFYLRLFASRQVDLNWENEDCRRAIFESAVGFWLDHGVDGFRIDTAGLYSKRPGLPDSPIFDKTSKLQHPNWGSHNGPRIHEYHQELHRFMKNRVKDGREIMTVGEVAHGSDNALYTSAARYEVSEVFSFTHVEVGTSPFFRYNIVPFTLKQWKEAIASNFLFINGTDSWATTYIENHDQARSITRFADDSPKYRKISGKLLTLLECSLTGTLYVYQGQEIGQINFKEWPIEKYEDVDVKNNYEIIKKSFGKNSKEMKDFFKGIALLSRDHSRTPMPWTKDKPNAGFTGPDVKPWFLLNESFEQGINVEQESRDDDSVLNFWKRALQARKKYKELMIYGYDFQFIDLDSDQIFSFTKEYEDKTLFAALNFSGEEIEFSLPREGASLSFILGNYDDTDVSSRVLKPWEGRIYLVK

CCCCN1C[C@H](O)[C@@H](O)[C@H](O)[C@H]1CO [Compound 1, N-butyldeoxynojirimycin]
Inhibitory activity, % at 1 mM ([1]; 1 mM): 12.7%
IC50 [2]: > 500 µM
EC50 [3]: 41 ± 22 µM
IC50 [4]: 13 µM

OC[C@H]1NC[C@H](O)[C@@H](O)[C@@H]1O [Compound 2, deoxynojirimycin]
IC50 [4]: 16 µM

O[C@H]1[C@H]2[C@H](O)CCCN2C[C@H]1O [Compound 3, swainsonine]
cytotoxicity at EC90 concentrations [5]: cytotoxicity at EC90 concentrations

OCCN1C[C@H](O)[C@@H](O)[C@H](O)[C@H]1CO [Compound 8, miglitol]
IC50 [6]: 0.05 µM
IC50 [1]: > 1000 µM
IC50 ([1]; read-out: Inhibitory activity IC50, ref 37): 9880 µM
IC50 ([1]; read-out: Inhibitory activity IC50, ref 46): 41.3 µM
IC50 [2]: > 500 µM

OC[C@@H]1[C@@H](O)[C@H](O)[C@@H](O)CN1CCCCCC12CC(C1)C2 [Compound 22, (2 R,3R,4R,5S)-1–(5-(Bicyclo[1.1.1]pentan-1-yl)pentyl)-3,4,5-trihydroxy-2-(hydroxymethyl)piperidin-1-ium chloride]
IC50 [2]: 218 µM

OC[C@H]1NNC[C@@H](O)[C@H]1O [Compound 40, (3 R,4S,5R)-3-(hydroxymethyl)hexahydropyridazine-4,5-diol hydrochloride]
IC50 [7]: > 100 µM

CC/C(=C(\c1ccccc1)c1ccc(OCCN(C)C)cc1)c1ccccc1 [Compound 72, tamoxifen]
cytotoxicity, concentration relative to antiviral EC90 [5]: 100 fold

CN1C[C@H](O)[C@@H](O)[C@H](O)[C@H]1CO [Compound 75, (2R,3R,4R,5S)-2-(hydroxymethyl)-1-methylpiperidine-3,4,5-triol]
IC50 [2]: 572 µM

CCCCCCCCCN1C[C@H](O)[C@@H](O)[C@H](O)[C@H]1CO [Compound 76, (2R,3R,4R,5S)-2-(hydroxymethyl)-1-nonylpiperidine-3,4,5-triol]
IC50 [2]: 70 µM

OC[C@@H]1[C@@H](O)[C@H](O)[C@@H](O)CN1CCCCCOCC12CC3CC(CC(C3)C1)C2 [Compound 77, (2 R,3R,4R,5S)-1–(5-(adamantan-1-ylmethoxy)pentyl)-2-(hydroxymethyl)piperidine-3,4,5-triol]
concentration at which inhibition occurred [8]: 200 µM
IC50 [2]: 67 µM

CN1C[C@H](O)[C@@H](O)[C@@H](O)[C@H]1CO [Compound 87, (2R,3S,4R,5S)-2-(hydroxymethyl)-1-methylpiperidine-3,4,5-triol]
IC50 [7]: 5.1 µM

CCCCCCCCCN1C[C@H](O)[C@@H](O)[C@@H](O)[C@H]1CO [Compound 89, (2R,3S,4R,5S)-2-(hydroxymethyl)-1-nonylpiperidine-3,4,5-triol]
IC50 [7]: > 100 µM

CCCCCCCCCN1CC[C@@H](O)[C@@H](O)[C@H]1CO [Compound 94, (2R,3S,4R)-2-(hydroxymethyl)-1-nonylpiperidine-3,4-diol]
IC50 [7]: > 100 µM

CN1NC[C@@H](O)[C@@H](O)[C@H]1CO [Compound 104, (4R,5S,6R)-6-(hydroxymethyl)-1-methylhexahydropyridazine-4,5-diol hydrochloride]
IC50 [7]: > 100 µM

COCCCCCCCCCN1C[C@H](O)[C@@H](O)[C@H](O)[C@H]1CO [UV-4]
EC50 [9]: 4 µM

CCCC(=O)O[C@H]1CN2CC[C@H](O)[C@@H]2[C@@H](O)[C@@H]1O [celgosivir]
EC50 [3]: 1 ± 0.2 µM

C[C@@H]1C[C@H]2[C@@H]3CCC4=CC(=O)C=C[C@]4(C)[C@@]3(F)[C@@H](O)C[C@]2(C)[C@@]1(O)C(=O)CO [dexamethasone]
reduction of mortality [10]: 30%
